In one assay the target is T1, TSLP-TSLPR interaction (Homo sapiens, UniProt Q969D9).
T1 construct: made in house
Description: ELISA-based TSLP-TSLPR interaction assay. Conditions: for inhibition at 100 µM: compound 0.1 mM; for inhibition at 100 µM / inhibition at 300 µM / inhibition at 1000 µM: FLAG-TSLP / TSLPR-His ELISA, OD 450 nm; for inhibition at 300 µM: compound 0.3 mM; for inhibition at 1000 µM: compound 1 mM. The assay is classed as binding. The procedure:
To this end, home-made FLAG-TSLP protein and TSLPR-His protein were used to establish an ELISA-based TSLP-TSLPR interaction assay for measuring reactions with HRP. The inhibitory activities of the inventive compounds were evaluated by the interaction assay.
ELISA assay was conducted using an Ni-NTA HisSorb plate (Qiagen, Germany). 100 μL of a solution of TSLPR C-terminally tagged with hexahistidine (His) was dispensed into each well of the plate and incubated at room temperature for 2 h. After each well was washed twice with 200 μL of PBS and 0.05% Tween-20, 100 μL of a solution of each of the inventive compounds as a sample and 100 μL of TSLP N-terminally tagged with FLAG was dispensed into the well. After incubation at 4° C. overnight, each well was washed twice and treated with 100 μL of a blocking buffer (PBS-0.05% Tween 20 and 1% nonfat dry milk). The plate was washed twice, coated with 100 μL of a monoclonal anti-FLAG horseradish peroxidase antibody (Sigma-Aldrich Co., USA) for 2 h, and incubated at room temperature. Then, each well was washed 5 times, treated with 200 μL of a solution of o-phenylenediaminedihydrochloride (Sigma-Aldrich Co., USA), incubated for 30 min, and added with 1 N HCl.
Optical densities (ODs) were measured at 450 nm using a microplate spectrophotometer. The inhibitory effect of the compound on TSLP-TSLPR interaction was calculated using the following equation: Inhibition (inhibitory effect) (%)=(1−ODsample/ODcontrol)×100
In general terms: An ELISA detects its analyte on a solid surface through an enzyme-linked reagent.

For assay [1], the target named is T2, IL-33 (Homo sapiens, UniProt O95760).
T2 sequence (O95760 95-270): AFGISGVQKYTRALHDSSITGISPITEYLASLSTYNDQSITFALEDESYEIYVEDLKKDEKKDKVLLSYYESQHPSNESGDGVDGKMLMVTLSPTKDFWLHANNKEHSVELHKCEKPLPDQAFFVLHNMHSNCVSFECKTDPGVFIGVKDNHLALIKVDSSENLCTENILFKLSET
Description: Inhibition of IL-6 secretion by IL-33 inhibition in HMC-1 cells (IL-6 ELISA). The assay is classed as cell-based. Conditions: HMC1, HMC-1 cells with IL-33, 24 h, negative values indicate increased IL-6 secretion. The procedure:
First, HMC-1, a human mast cell line, was cultured until an appropriate number of cells was maintained in a 96-well plate. Mixtures of IL-33 and different concentrations (0.3, 3, and 30 μM) of each of the inventive compounds were treated on cells, incubated at 37° C. for 24 h, and centrifuged. The supernatants were analyzed for IL-6 secretion using an IL-6 ELISA kit (Biolegend, USA).

The test system of assay [2] is HDM-induced allergic airway inflammation. Description: House dust mite (HDM)-induced allergic airway inflammation mouse models. Type of assay: in vivo. Particulars: 200 μg intraperitoneal, BALB/c mice, day 11, vs untreated controls (FIG. 4 and 5). The procedure: Splenocytes were isolated from DO11.10 mice and ˜1×10^6CD4T cells were transferred to pure BALB/c mice by intravenous injection. For 3 days from the next day, 100 μg of a mixture of HDM (Dermatophagoidesfarinae 50 μg, Dermatophagoidespteronyssinus 50 μg, Greer Laboratories, Inc., USA) and OVA (Sigma-Aldrich Co., USA) was administered intranasally to the mice. From day 2 after administration, the mice were treated with 200 μg of each of the inventive compounds or PBS (for control mice) three times daily through the intraperitoneal route. After the mice were euthanized on day 11, the numbers of total cells and eosinophils in the airways were checked. The treatment schedule with the Formula 5 (KB 1517) and Formula 10 (KB 1518) (200 μg each) in house dust mite (HDM)-induced allergic airway inflammation mouse models is shown in FIG. 8.

Assay [3] deals with T2, IL-33. Briefly: Inhibition of IL-6 secretion by IL-33 inhibition in HMC-1 cells (IL-6 ELISA). Type of assay: cell-based. Conditions: HMC1, HMC-1 cells with IL-33, 24 h, negative values indicate increased IL-6 secretion. The source holds these as a separate data set.

Broadly, the inhibition is the change of the read-out against control, counted positive when it falls. On to `CN(C)CCn1c(=O)c2nc(-c3ccccc3)oc2c2ccccc21` [Compound 2, 5-(2-(dimethylamino)ethyl)-2-phenyloxazolo[4,5-c]quinolin-4(5H)-one], for which, at TSLP-TSLPR interaction, the inhibition at 100 µM came out at 26.7%, the inhibition at 300 µM was found to be 49% and the inhibition at 1000 µM amounted to 66.9%. The inhibition at 3 µM on IL-33 [1] was -11.8%.

Take `CN(C)CCn1c(=O)c2nc(-c3ccc(F)cc3)oc2c2ccccc21` [Compound 3, 5-(2-(dimethylamino)ethyl)-2-(4-fluorophenyl)oxazolo[4,5-c]quinolin-4(5H)-one]: at TSLP-TSLPR interaction, the inhibition at 100 µM stood at 17.7% and the inhibition at 300 µM stood at 27.5%. Also, the inhibition at 3 µM on IL-33 [1] worked out at 29.8%.

As to `CN(C)CCn1c(=O)c2nc(-c3ccc(Cl)cc3)oc2c2ccccc21` [Compound 4, 2-(4-chlorophenyl)-5-(2-(dimethylamino)ethyl)oxazolo[4,5-c]quinolin-4(5H)-one], at TSLP-TSLPR interaction, the inhibition at 100 µM amounted to 28.8% and the inhibition at 300 µM was 46.6%. Also, on IL-33 [1], the inhibition at 0.3 µM was determined as 22.5% and the inhibition at 3 µM worked out at 29.7%.

As for `CN(C)CCn1c(=O)c2nc(-c3ccc(C(F)(F)F)cc3)oc2c2ccccc21` [Compound 5, 5-(2-(dimethylamino)ethyl)-2-(4-(trifluoromethyl)phenyl)oxazolo[4,5-c]quinolin-4(5H)-one], on TSLP-TSLPR interaction, the inhibition at 100 µM worked out at 23.2% and the inhibition at 300 µM was determined as 29.6%. For the same compound, on IL-33 [1], the inhibition at 0.3 µM is 30.4% and the inhibition at 3 µM worked out at 28.2%. In addition, in assay [2], the “number of eosinophils in the airways” value is recorded as “significantly reduced” and the “number of total cells in the airways” value was “significantly reduced”.

In the case of `COc1ccc(-c2nc3c(=O)n(CCN(C)C)c4ccccc4c3o2)cc1` [Compound 6, 5-(2-(dimethylamino)ethyl)-2-(4-methoxyphenyl)oxazolo[4,5-c]quinolin-4(5H)-one], on TSLP-TSLPR interaction, the inhibition at 100 µM is 25.8% and the inhibition at 300 µM amounted to 54.7%. Moreover, the inhibition at 3 µM at IL-33 [1] is -57.8%.

As for `CN(C)CCOc1nc2ccccc2c2oc(-c3ccccc3)nc12` [Compound 7, N,N-dimethyl-2-((2-phenyloxazolo[4,5-c]quinolin-4-yl)oxy)ethanamine], on TSLP-TSLPR interaction, the inhibition at 100 µM came out at 27.8%, the inhibition at 300 µM was 54.6% and the inhibition at 1000 µM came out at 57.2%. Further, the inhibition at 3 µM on IL-33 [1] was 35.6%.

Take `CN(C)CCOc1nc2ccccc2c2oc(-c3ccc(C(F)(F)F)cc3)nc12` [Compound 10, N,N-dimethyl-2-((2-(4-(trifluoromethyl)phenyl)oxazolo[4,5-c]quinolin-4-yl)oxy)ethanamine]: at IL-33 [1], the inhibition at 0.3 µM came out at 49.3% and the inhibition at 3 µM came to 51.3%. Besides, in assay [2], the “number of eosinophils in the airways” value was “significantly reduced” and the “number of total cells in the airways” value is reported as “significantly reduced”. Besides, the inhibition at 0.03 µM against IL-33 [3] amounted to 32.7%.

As for “FLAG tag-free TSLP: TSLP protein without FLAG tag, 1 mg/mL, competitor control in the TSLP-TSLPR ELISA [reference compound]”, in the assay with TSLP-TSLPR interaction (1 mg/mL FLAG tag-free TSLP as competitor), the “Inhibition (%)” value is 40.7%.
